Consider one molecule from US20010056086A1, “USE OF ANTI-OESTROGENS AS MALE CONTRACEPTIVES” (priority 1995, published 2001).

This series concerns normal adult male rats. The experiment in a line: 28-day treatment of normal adult male rats: organ weight and histology of the male reproductive tract, epididymal sperm properties. The class given is in vivo. To be noted: 2.5 mg/kg subcutaneously, 28 days. As for the experimental part:
The above-described properties of antiestrogens were obtained in tests that were performed with the ICI-antiestrogen 7α-[9-(4,4,5,5,5-pentafluoropentylsulfinyl)-nonyl]-estra-1,3,5(10)-triene-3,17β-diol on normal adult male rats.
The test design and the results are described in the list below:
Observations regarding the organ weight of the male reproductive tract and sperm properties: […]

As for `C[C@]12CC[C@@H]3c4ccc(O)cc4C[C@@H](CCCCCCCCC[S+]([O-])CCCC(F)(F)C(F)(F)F)[C@H]3[C@@H]1CC[C@@H]2O` (stereo partly drawn) [7α-[9-(4,4,5,5,5-pentafluoropentylsulfinyl)-nonyl]-estra-1,3,5(10)-triene-3,17β-diol], for the setting “vs vehicle control”, the “histology of the organs studied (seminal vesicles, prostate, testicles, epididymis)” value was “No effects” and the “weight of the organs studied (seminal vesicles, prostate, testicles, epididymis)” value was “No effects”. In addition, under “epididymal sperm”, the “acrosomal state of sperm” value is on record as “Induction of an early incipient acrosomal reaction” and the sperm motility result is “Inhibition of motility”.
